Laboratory results from patent US6387905B2, “Compounds useful for inhibition of farnesyl protein transferase” (Schering Corporation, priority 1996, dated 2002).
Like-named read-outs stand apart in the source and are kept apart here.

How the values were obtained:
COS Cell = COS Cell IC50 (Cell-Based Assay)
Description: (§1) FPT IC50 (inhibition of farnesyl protein transferase, in vitro enzyme assay) and COS Cell IC50 (Cell-Based Assay) were determined following the assay procedures described in WO 95/10516, published Apr. 20, 1995. GGPT IC50 (inhibition of geranylgeranyl protein transferase, in vitro enzyme assay), Cell Mat Assay, and anti-tumor activity (in vivo anti-tumor studies) could be determined by the assay procedures described in WO 95/10516. The disclosure of WO 95/10516 is incorporated herein by reference thereto.

[1] = molecular target: farnesyl protein transferase (FPT), H-ras (Homo sapiens, UniProt P49354+P49356); assay: FPT IC50 (H-ras), inhibition of farnesyl protein transferase, in vitro enzyme assay; format: biochemical
Description: as §1

Human tumor cells = assay: Soft Agar Assay (anchorage-independent growth); format: cell-based; details: Homo sapiens
Description: Anchorage-independent growth is a characteristic of tumorgenic cell lines. Human tumor cells are suspended in growth medium containing 0.3% agarose and an indicated concentration of a farnesyl transferase inhibitor. The solution is overlayed onto growth medium solidified with 0.6% agarose containing the same concentration of farnesyl transferase inhibitor as the top layer. After the top layer is solidified, plates are incubated for 10-16 days at 37° C. under 5% CO2 to allow colony outgrowth. After incubation, the colonies are stained by overlaying the agar with a solution of MTT (3-[4,5-dimethyl-thiazol-2-yl]-2,5-diphenyltetrazolium bromide, Thiazolyl blue) (1 mg/mL in PBS). Colonies can be counted and the IC50's can be determined.

[2] = COS, Table 5, read-out: Cos Cell IC50
[3] = Table 5, read-out: Soft Agar IC50
[4] = COS, read-out: Cos Cell IC50, Table 5
[5] = read-out: Soft Agar IC50, Table 5
[6] = Table 3, H-ras, read-out: FPT IC50 (nM) (H-ras)
[7] = H-ras, read-out: FPT IC50 (H-ras)

Row | Structure (SMILES) | IC50 (COS Cell; [2]) [nM] | IC50 ([1]; Table 4, read-out: FPT IC50) [nM] | IC50 (Human tumor cells; [3]) [nM] | other results
1 | O=C(CO/N=C/c1cc[n+]([O-])cc1)N1CCC(CC(=O)N2CCC([C@H]3c4ncc(Br)cc4CCc4cc(Cl)cc(Br)c43)CC2)CC1 [Cmpd 22.0-B] | 35 | 1.8 | 19.5 | 
2 | NC(=O)CC(O)CC(=O)N1CCC(CC(=O)N2CCC([C@H]3c4ncc(Br)cc4CCc4cc(Cl)cc(Br)c43)CC2)CC1 (stereo partly shown) [Cmpd 92.0-B] | 15 | 2.2 | 45 | 
3 | NC(=O)CCC(=O)N1CCC(CC(=O)N2CCC([C@H]3c4ncc(Br)cc4CCc4cc(Cl)cc(Br)c43)CC2)CC1 [Cmpd 69.0-B] | 25 | 2.5 | 190 | 
4 | CONC(=O)C(=O)N1CCC(CC(=O)N2CCC(C3c4ncc(Br)cc4CCc4cc(Cl)cc(Br)c43)CC2)CC1 (stereo not shown) [Cmpd 49.0-B] | 38 | 2.1 | > 500 | 
5 | O=C(O)CCCCC(=O)N1CCC(CC(=O)N2CCC([C@H]3c4ncc(Br)cc4CCc4cc(Cl)cc(Br)c43)CC2)CC1 [Example 81] |  | 3.6 |  | IC50 (COS Cell; [4]): 30 nM; IC50 (Human tumor cells; [5]): 480 nM
6 | NS(=O)(=O)NCC(=O)N1CCC(CC(=O)N2CCC([C@H]3c4ncc(Br)cc4CCc4cc(Cl)cc(Br)c43)CC2)CC1 [Cmpd 39.0-B] | 16 | 4.1 | 220 | 
7 | O=C(NOCc1ccccc1)C(=O)N1CCC(CC(=O)N2CCC([C@H]3c4ncc(Br)cc4CCc4cc(Cl)cc(Br)c43)CC2)CC1 [Cmpd 60.0-B] | 120 | 5.4 | 500 | 
8 | O=C(Cc1c[nH]cn1)N1CCC(CC(=O)N2CCC([C@H]3c4ncc(Br)cc4CCc4cc(Cl)cc(Br)c43)CC2)CC1 [Cmpd 30.0-B] | 9 | 2.9 | 500 | 
9 | O=C(O)NC(=O)C(=O)N1CCC(CC(=O)N2CCC([C@H]3c4ncc(Br)cc4CCc4cc(Cl)cc(Br)c43)CC2)CC1 [Cmpd 59.0-B] | 50 | 4 | 500 | 
10 | CC(C)(C)OC(=O)N[C@@H](Cc1ccccc1)C(=O)N1CCC(CC(=O)N2CCC([C@H]3c4ncc(Br)cc4CCc4cc(Cl)cc(Br)c43)CC2)CC1 [Example 7] |  |  |  | IC50 [1, 6]: 31.7 nM
11 | O=C(O)c1cccn1CC(=O)N1CCC(CC(=O)N2CCC([C@H]3c4ncc(Br)cc4CCc4cc(Cl)cc(Br)c43)CC2)CC1 [Cmpd 52.0-B] | 400 | 1.3 | 500 | 
12 | O=C(CC1CCN(C(=O)Cn2cnc3cccnc32)CC1)N1CCC([C@H]2c3ncc(Br)cc3CCc3cc(Cl)cc(Br)c32)CC1 [Cmpd 13.0-B] | 25 | 4.1 | > 500 | 
13 | NCCCC(=O)N1CCC(CC(=O)N2CCC([C@H]3c4ncc(Br)cc4CCc4cc(Cl)cc(Br)c43)CC2)CC1 [Cmpd 90.0-B] |  | 3.8 |  | 
14 | COC(=O)c1cccn1CC(=O)N1CCC(CC(=O)N2CCC([C@H]3c4ncc(Br)cc4CCc4cc(Cl)cc(Br)c43)CC2)CC1 [Cmpd 35.0-B] | 30 | 6.4 | 300 | IC50 (COS Cell; Table 5, read-out: Cos Cell IC50): 50 nM
15 | O=C(O)CCCCCC(=O)N1CCC(CC(=O)N2CCC([C@H]3c4ncc(Br)cc4CCc4cc(Cl)cc(Br)c43)CC2)CC1 [Example 80] |  | 1.4 |  | IC50 (COS Cell; [4]): 25 nM; IC50 (Human tumor cells; [5]): 250 nM
16 | O=C(CC1CCN(C(=O)CC2CCCCO2)CC1)N1CCC([C@H]2c3ncc(Br)cc3CCc3cc(Cl)cc(Br)c32)CC1 (stereo partly shown) [Cmpd 114.3-B] | 11 | 7.2 | 432 | 
17 | CN(C)S(=O)(=O)NCC(=O)N1CCC(CC(=O)N2CCC([C@H]3c4ncc(Br)cc4CCc4cc(Cl)cc(Br)c43)CC2)CC1 [Cmpd 38.0-B] | 10 | 3.2 | 210 | 
18 | O=C(CC1CCN(C(=O)Cn2cnc([N+](=O)[O-])c2)CC1)N1CCC([C@H]2c3ncc(Br)cc3CCc3cc(Cl)cc(Br)c32)CC1 [Cmpd 26.0-B] | 30 | 3.2 | > 500 | 

Row | Structure (SMILES) | IC50 (COS Cell; [2]) [nM] | IC50 ([1]; Table 4, read-out: FPT IC50) [nM] | IC50 (Human tumor cells; [3]) [nM] | other results
19 | CCOC(=O)c1c(C)ncn1CC(=O)N1CCC(CC(=O)N2CCC([C@H]3c4ncc(Br)cc4CCc4cc(Cl)cc(Br)c43)CC2)CC1 [Cmpd 21.0-B] |  | 5.7 | > 500 | 
20 | O=C(CC1CCN(C(=O)CC2CCCO2)CC1)N1CCC([C@H]2c3ncc(Br)cc3CCc3cc(Cl)cc(Br)c32)CC1 (stereo partly shown) [Cmpd 114.4-B] | 10 | 7.8 | 363 | 
21 | CC(C)=NOCCC(=O)N1CCC(CC(=O)N2CCC([C@H]3c4ncc(Br)cc4CCc4cc(Cl)cc(Br)c43)CC2)CC1 [Example 23.0-B] |  |  |  | IC50 [1, 7]: 2.8 nM
22 | O=C(CC1CCN(C(=O)C2CC(O)CN2)CC1)N1CCC([C@H]2c3ncc(Br)cc3CCc3cc(Cl)cc(Br)c32)CC1 (stereo partly shown) [Cmpd 63.0-B] | 55 | 3.5 | 500 | 
23 | O=C(O)CCCC(=O)N1CCC(CC(=O)N2CCC([C@H]3c4ncc(Br)cc4CCc4cc(Cl)cc(Br)c43)CC2)CC1 [Example 19.0-B] |  | 1.1 |  | IC50 (COS Cell; [4]): 17.5 nM; IC50 (COS Cell; read-out: Cos Cell IC50, Table 5): < 10 nM
24 | CCOC(CC(=O)N1CCC(CC(=O)N2CCC([C@H]3c4ncc(Br)cc4CCc4cc(Cl)cc(Br)c43)CC2)CC1)OCC [Cmpd 76.0-B] |  | 6.7 |  | 
25 | CCOC(=O)c1c(C)ncn1CC(=O)N1CCC(CC(=O)N2CCC([C@H]3c4ncc(Br)cc4CCc4cc(Cl)cc(Br)c43)CC2)CC1 [Cmpd 53.0-B] | 50 | 3.6 |  | 
26 | COC(NC(=O)CC(=O)N1CCC(CC(=O)N2CCC([C@H]3c4ncc(Br)cc4CCc4cc(Cl)cc(Br)c43)CC2)CC1)C(C)C (stereo partly shown) [Cmpd 51.0-B] | 280 | 8.1 |  | 
27 | O=C(CCN1CCCCC1)N1CCC(CC(=O)N2CCC([C@H]3c4ncc(Br)cc4CCc4cc(Cl)cc(Br)c43)CC2)CC1 [Cmpd 7.0-B] | 43 | < 2.6 |  | 
28 | O=C(NO)C(=O)N1CCC(CC(=O)N2CCC([C@H]3c4ncc(Br)cc4CCc4cc(Cl)cc(Br)c43)CC2)CC1 [Cmpd 58.0-B] |  | 16 |  | 
29 | O=C(CC1CCN(C(=O)CN2CCS(=O)(=O)CC2)CC1)N1CCC(C2c3ncc(Br)cc3CCc3cc(Cl)cc(Br)c32)CC1 (single isomer, unassigned; (+)) [Example 23] |  |  |  | IC50 (COS Cell; COS, Table 3, read-out: COS Cell IC50): 14 nM; IC50 [1, 6]: 2.7 nM
30 | NC(=O)CCCCC(=O)N1CCC(CC(=O)N2CCC([C@H]3c4ncc(Br)cc4CCc4cc(Cl)cc(Br)c43)CC2)CC1 [Cmpd 67.0-B] |  | 3.5 |  | 
31 | CNC(=O)C(=O)N1CCC(CC(=O)N2CCC([C@H]3c4ncc(Br)cc4CCc4cc(Cl)cc(Br)c43)CC2)CC1 [Cmpd 64.0-B] | 10 |  | 130 | 
32 | NC(=O)CCCCC(=O)N1CCC(CC(=O)N2CCC([C@H]3c4ncc(Br)cc4CCc4cc(Cl)cc(Br)c43)CC2)CC1 [Example 108.0-B] |  |  |  | IC50 [1, 7]: 3.5 nM
33 | O=C(CC1CCN(C(=O)Cn2cnc(-c3ccccc3)c2)CC1)N1CCC([C@H]2c3ncc(Br)cc3CCc3cc(Cl)cc(Br)c32)CC1 [Cmpd 20.0-B] |  | 5.6 |  | 
34 | O=C(CC1CCN(C(=O)CN2C(=O)CSC2=O)CC1)N1CCC([C@H]2c3ncc(Br)cc3CCc3cc(Cl)cc(Br)c32)CC1 [Example 79.0-B] |  |  |  | IC50 [1, 7]: 4.4 nM
35 | O=C(CO)N1CCC(CC(=O)N2CCC([C@H]3c4ncc(Br)cc4CCc4cc(Cl)cc(Br)c43)CC2)CC1 [Cmpd 37.0-B] |  | 2.6 | 75 | 
36 | CC(C)(C)OC(=O)NCCC(=O)N1CCC(CC(=O)N2CCC([C@H]3c4ncc(Br)cc4CCc4cc(Cl)cc(Br)c43)CC2)CC1 [Example 86.0-B] |  | 18 |  | 
